Data reported in patent publication US20100210649A1, “PYRIDAZINONES AND FURAN-CONTAINING COMPOUNDS” (Sloan-Kettering Institute for Cancer Research, priority 2006, published 2010).

Legend:
Type in all cases: cell-based, human
[1] = test system: H1650; assay: Non Small Cell Lung Cancer proliferation assay (Alamar Blue reduction), H1650; conditions: Homo sapiens, NCI-H1650; primary screening; 10 μM compound in 1% DMSO (v/v); read-out: percentage inhibition H1650
Procedure, shortened: (§1)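 Human NSCLC cells were seeded at 250 cells/well with compound at a final 1% DMSO and treated for 48 hours at 37° C. 1% DMSO served as the high control.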

[2] = test system: H1975; assay: Non Small Cell Lung Cancer proliferation assay (Alamar Blue reduction), H1975; conditions: Homo sapiens, NCI-H1975; primary screening; 10 μM compound in 1% DMSO (v/v); read-out: percentage inhibition H1975
Procedure, shortened: as §1

[3] = test system: H2030; assay: Non Small Cell Lung Cancer proliferation assay (Alamar Blue reduction), H2030; conditions: Homo sapiens, NCI-H2030; primary screening; 10 μM compound in 1% DMSO (v/v); read-out: percentage inhibition H2030
Procedure, shortened: as §1

[4] = test system: H3255; assay: Non Small Cell Lung Cancer proliferation assay (Alamar Blue reduction), H3255; conditions: Homo sapiens, NCI-H3255; primary screening; 10 μM compound in 1% DMSO (v/v); read-out: percentage inhibition H3255
Procedure, shortened: as §1

Compound | inhibition at 10 µM [1] | inhibition at 10 µM [2] | inhibition at 10 µM [3] | inhibition at 10 µM [4]
O=c1c2c(cnn1-c1ccccc1)SCCS2 [compound 195988] | 13% | -7% | 7% | -18%
O=c1c(SCc2ccccc2)c(N2CCCCC2)cnn1-c1ccccc1 [compound 195989] | 21% | 35% | 6% | -27%
O=c1c(Cl)cc(Cl)nn1-c1ccccc1 [compound 196392] | 87% | 99% | -13% | 111%
O=c1ccc(Oc2nc(N3CCCCC3)nc(N3CCCCC3)n2)nn1-c1ccccc1 [compound 196618] | 3% | -14% | 12% | -33%
O=C(O)c1ccc(-n2ncc(Cl)c(Cl)c2=O)cc1 [compound 197940] | 11% | -6% | 2% | -37%
O=C(COc1cnn(-c2ccccc2)c(=O)c1Cl)c1ccccc1 [compound 199759] | 16% | 36% | 9% | 66%
O=C(COCCOc1cnn(-c2ccccc2)c(=O)c1Cl)c1ccccc1 [compound 199760] | 12% | -22% | 21% | 6%
CCOC(=O)N(CCOc1cnn(-c2ccccc2)c(=O)c1)C(=O)OCC [compound 199761] | -7% | -25% | 6% | 41%
CCOC(=O)NCCOc1cnn(-c2ccc(Cl)cc2)c(=O)c1Cl [compound 199764] | -11% | -14% | -9% | 2%
NCCOc1cnn(-c2ccccc2Cl)c(=O)c1Cl [compound 200052] | -9% | 5% | 12% | -18%
CCOC(=O)NCCOc1cnn(-c2ccccc2)c(=O)c1Cl [compound 201622] | 5% | -23% | 4% | 33%
O=c1c(Cl)c(Cl)c(Cl)nn1-c1ccc(Br)cc1 [compound 202245] | 48% | 96% | -8% | 71%
COc1cc(Cl)nn(-c2ccccc2)c1=O [compound 206569] | -2% | 3% | 7% | 22%
O=c1c(SCc2ccc(Cl)cc2Cl)c(SCc2ccc(Cl)cc2Cl)cnn1-c1ccccc1 [compound 208619] | -4% | 1% | -12% | -19%
O=c1c(SCc2ccccc2)c(SCc2ccccc2)cnn1-c1ccccc1 [compound 208693] | -6% | -7% | -11% | 0%
COc1cnn(-c2ccc(C)cc2)c(=O)c1SCc1ccccc1 [compound 208694] | -21% | -29% | 3% | -16%
O=c1c(SCc2ccccc2Cl)c(SCc2ccccc2Cl)cnn1-c1ccccc1 [compound 208695] | -14% | -13% | -11% | -2%
CCCCSc1cnn(-c2ccccc2)c(=O)c1SCc1ccccc1 [compound 208696] | -2% | -19% | 4% | 37%
O=c1c(Cl)c(SC(c2ccccc2)c2ccccc2)cnn1-c1ccccc1 [compound 208697] | -3% | -16% | 4% | 31%
O=c1c(SCc2ccccc2)c(SCc2ccccc2)cnn1-c1ccc(Br)cc1 [compound 208699] | -12% | -22% | 10% | 19%

Compound | inhibition at 10 µM [1] | inhibition at 10 µM [2] | inhibition at 10 µM [3] | inhibition at 10 µM [4]
COc1cnn(-c2ccccc2)c(=O)c1SCc1ccc(Cl)cc1Cl [compound 208701] | -4% | -25% | 7% | 7%
O=c1c(SCc2ccccc2)cc(Cl)nn1-c1ccccc1 [compound 208702] | 3% | -16% | -15% | 0%
Cc1cccc(-n2ncc(SCc3ccccc3)c(SCc3ccccc3)c2=O)c1 [compound 208703] | 2% | -18% | 9% | 16%
O=c1c(SCc2ccc(Cl)cc2)c(SCc2ccccc2)cnn1-c1ccccc1 [compound 208704] | -10% | -6% | -15% | -23%
O=c1c(SCc2ccccc2)c(SCc2ccc(Cl)cc2)cnn1-c1ccccc1 [compound 208705] | -4% | -20% | 10% | 0%
CC(C)Oc1c(S)cnn(-c2ccccc2)c1=O [compound 213495] | 4% | -15% | -5% | 8%
Cc1cc(-n2ccc3c(C#N)c(=O)n(-c4ccccc4)nc3c2=O)[nH]n1 [compound 216994] | 1% | 1% | 4% | -3%
O=c1ccc(Cl)nn1-c1ccc(Br)cc1 [compound 222922] | -20% | 3% | -30% | -7%
Cc1c(Oc2ccccc2)nnn1-c1cnn(-c2ccccc2)c(=O)c1Br [compound 223337] | 13% | 5% | -14% | 61%
O=c1c(Br)c(-n2cc(CO)nn2)cnn1-c1ccccc1 [compound 224256] | 103% | 102% | 1% | 110%
Cc1ccc(-n2nc(C#N)c(-c3ccccc3)c(C#N)c2=O)cc1 [compound 224358] | -4% | -9% | -2% | -14%
CSc1cnn(-c2ccccc2)c(=O)c1SCc1ccccc1 [compound 224764] | 21% | -5% | -10% | -32%
Cc1ccccc1-n1ncc(SCc2ccccc2)c(Cl)c1=O [compound 224765] | 7% | 1% | -15% | -12%
CCCCSc1cnn(-c2ccccc2)c(=O)c1SCCCC [compound 224766] | -12% | -29% | 95% | 24%
O=c1c(SCc2ccccc2)c(N2CCOCC2)cnn1-c1ccccc1 [compound 224770] | 65% | -8% | -8% | 24%
O=c1c(SCc2ccc(Cl)cc2Cl)c(SC2CCCCO2)cnn1-c1ccccc1 (stereo not shown) [compound 224771] | -12% | -21% | 3% | 30%
CCOC(=O)COc1cnn(-c2ccccc2)c(=O)c1Cl [compound 225042] | -18% | 10% | 6% | 5%
Cc1c(C(=O)c2ccccc2)nn(-c2ccccc2Cl)c(=N)c1C#N [compound 227247] | -16% | -9% | -1% | 11%
Cc1ccc(-n2nc(C(=O)O)c(/C=C/c3ccc(Cl)cc3Cl)c(C#N)c2=O)cc1C [compound 227626] | -15% | -14% | 0% | 71%
Cc1ccc(C(C)C)c(OCC(=O)Oc2ccc(=O)n(-c3ccccc3)n2)c1 [compound 228706] | -16% | -11% | 5% | -25%
